Measurements: patent US5179117A, “Antihypercholesterolemic 2-substituted imidazoles” (Du Pont Merck Pharmaceutical Company, priority 1991, dated 1993)
Counter-ions that a name gives are not always drawn.

The compounds below were run against T1, acyl-CoA: cholesterol acyltransferase (ACAT) (Mus musculus, UniProt Q61263) (assay: Assay of the inhibition of cholesterol esterification in mammalian cells (J774.A1 macrophages, 14C-oleic acid incorporation into cholesteryl ester, ac-LDL loaded)). Conditions: murine macrophage-like cell line J774.A1, ac-LDL loaded, 14C-oleic acid pulse; read-out: Cholesterol Esterification IC50 (concentration at which ACAT activity is inhibited by 50%).
T1 construct: endogenous in cells; host or cells: J774.A1 murine macrophage-like cells
T1 sequence (Q61263 1-540): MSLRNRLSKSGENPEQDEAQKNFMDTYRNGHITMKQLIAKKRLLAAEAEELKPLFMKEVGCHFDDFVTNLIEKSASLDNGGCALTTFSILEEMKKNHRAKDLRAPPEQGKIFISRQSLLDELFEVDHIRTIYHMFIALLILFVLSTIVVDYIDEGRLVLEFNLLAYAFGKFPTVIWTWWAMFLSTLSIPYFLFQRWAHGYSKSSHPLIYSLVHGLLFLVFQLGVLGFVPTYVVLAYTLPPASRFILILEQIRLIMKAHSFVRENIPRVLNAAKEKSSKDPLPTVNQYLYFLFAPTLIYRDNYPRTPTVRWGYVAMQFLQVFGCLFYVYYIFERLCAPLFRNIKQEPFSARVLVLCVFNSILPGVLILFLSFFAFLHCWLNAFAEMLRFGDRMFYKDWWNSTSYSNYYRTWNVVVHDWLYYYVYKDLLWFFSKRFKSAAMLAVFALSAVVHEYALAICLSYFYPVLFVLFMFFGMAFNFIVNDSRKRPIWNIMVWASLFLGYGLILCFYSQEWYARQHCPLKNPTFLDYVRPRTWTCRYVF
Type: cell-based
Method: The esterification of cholesterol was determined in the murine macrophage-like cell line J774.A1. Cells were seeded in 35 mm wells at a density of 300,000 cells per well in 2 mls of Dulbecco's Eagle Medium (DMEM) supplemented with 10% fetal bovine serum (FBS). Cells were incubated at 37° C. in an atmosphere of 5% CO2 and 93% humidity. After 24 hours the media was changed to 0.68 mls 10% FBS-DMEM containing 34 μg of acetylated human low density lipoprotein (ac-LDL) to increase the intracellular concentration of cholesterol and promote esterification. At 41 hours, various inhibitors were added to the cells in DMSO (10 μl/ml maximum). At 43 hours, the cells were pulsed with 0.1 mM ^14 C-oleic acid (10,000 dpm/nmol) complexed with BSA (bovine serum albumin) to follow cholesterol ester formation. The experiment was terminated at 45 hours by washing the monolayers 3 time with 3 ml of Tris-buffered saline at 4° C. The lipids were extracted by incubating the monolayers with 1.5 ml of hexane: isopropanol (3:2, v/v) for 30 min. under gentle agitation. During this period, 10,000 dpm ^3 H-cholesteryl linoleate and 10 μg of cholesteryl oleate were added as an internal standard and carrier respectively. The organic solvent was removed and the cells were washed with an additional 1.0 ml of hexane: isopropanol which was combined with the original extract. The cells were allowed to dry overnight, digested with 1.5 ml of 0.2N sodium hydroxide for 1 hour and an aliquot of the solubilized protein used for protein determination using the Lowry method. The organic extract was taken to dryness, the residue resuspended in 100 μl of chloroform and the lipids separated on silica gel impregnated glass fiber plates using a hexane: diethylether: acetic acid (170:30:1, v/v/v) solvent system. Individual lipids were visualized with iodine and the cholesteryl ester spot cut out and transferred to scintillation vials to determine the amount of radioactivity. The conversion of oleic acid to cholesteryl ester in the control averaged […]/hour/mg protein and was increased upon the addition of ac-LDL to about […]/hour/mg protein. The inhibition of esterification by the compounds is shown in Table 2; the data are expressed as the concentration at which ACAT activity is inhibited by 50% (IC50).
An IC50 of 4620 nM was found for `CCCCCC(=CCCCCSc1nc(-c2ccccc2)c(-c2ccccc2)[nH]1)C(=O)OCC` [Example 10, ethyl, 7-(4,5-diphenyl-1H-imidazol-2-ylthio)-2-pentyl-2-heptenoate] in this work. An IC50 of 650 nM was found for `CCCC[C@H](NC(=O)CCCSc1nc(-c2ccc(OC)cc2)c(-c2ccc(OC)cc2)[nH]1)C(=O)OC` [Example 9, N-[4-[4,5-bis(4-methoxyphenyl)-1H-imidazol-2-ylthio]-1-oxobutyl]-norleucine, methyl ester] in this work. An IC50 of 386 nM was found for `COC(=O)[C@H](CCCCNC(=O)C12CC3CC(CC(C3)C1)C2)NC(=O)CCCSc1nc(-c2ccc(OC)cc2)c(-c2ccc(OC)cc2)[nH]1` [Example 3, N6-(1-adamantylcarbonyl)-N2-[4-[4,5-bis(4-methoxyphenyl)-1H-imidazol-2-ylthio]-1-oxobutyl]-L-lysine, methyl ester] in this work. An IC50 of 601 nM was found for `COC(=O)[C@H](CCCCNC(=O)NCc1ccccc1)NC(=O)CCCSc1nc(-c2ccc(OC)cc2)c(-c2ccc(OC)cc2)[nH]1` [Example 4, N2-[4-[4,5-bis(4-methoxyphenyl)-1H-imidazol-2-ylthio]-1-oxobutyl]-N6-[(phenylmethyl)-aminocarbonyl]-L-lysine, methyl ester] in this work. An IC50 of 1100 nM was found for `COc1ccc(-c2nc(SCCCC(=O)N[C@@H](CCCCNC(=O)OCc3ccccc3)C(=O)NC(C)C)[nH]c2-c2ccc(OC)cc2)cc1` [Example 7, phenylmethyl, (S)-[5-[[4-[4,5-bis(4-methoxyphenyl)-1H-imidazol-2-ylthio]-1-oxobutyl]amino]-6-[(1-methylethyl)amino]-6-oxohexyl]carbamate] in this work. An IC50 of 10300 nM was found for `COC(=O)[C@H](CCCCNC(C)=O)NC(=O)CCCSc1nc(-c2ccc(OC)cc2)c(-c2ccc(OC)cc2)[nH]1` [Example 6, N6-acetyl-N2-[4-[4,5-bis(4-methoxyphenyl)-1H-imidazol-2-ylthio]-1-oxobutyl]-L-lysine, methyl ester] in this work. An IC50 of 37 nM was found for `COC(=O)[C@H](CCCCNC(=O)OCc1ccccc1)NC(=O)CCCSc1nc(-c2ccc(OC)cc2)c(-c2ccc(OC)cc2)[nH]1` [Example 1, N2-[4-[4,5-bis(4-methoxyphenyl)-1H-imidazol-2-ylthio]-1-oxobutyl]-N6-[(phenylmethoxy)carbonyl]-L-lysine, methyl ester] in this work. An IC50 of 4.9 nM was found for `COC(=O)[C@H](CCCCNC(=O)OCc1ccccc1)NC(=O)CCCSc1nc(-c2ccc(N(C)C)cc2)c(-c2ccc(N(C)C)cc2)[nH]1` [Example 8, N2-[4-[4,5-bis[4-(dimethylamino)phenyl] -1H-imidazol-2-ylthio]-1-oxobutyl]-N6-[(phenylmethoxy)carbonyl]-L-lysine, methylester] in this work. An IC50 of 13400 nM was found for `CCCCCC(=CCCCCSc1nc(-c2ccccc2)c(-c2ccccc2)[nH]1)C(=O)O` [Example 11, 7-(4,5-diphenyl-1H-imidazol-2-ylthio)-2-pentyl-2-heptenoic acid] in this work. An IC50 of 100000 nM was found for `COC(=O)[C@H](CCCCN)NC(=O)CCCSc1nc(-c2ccc(OC)cc2)c(-c2ccc(OC)cc2)[nH]1` [Example 2, N2-[4-[4,5-bis(4-methoxyphenyl)-1H-imidazol-2-ylthio]-1-oxobutyl]-L-lysine, methyl ester hydrobromide] in this work. An IC50 of 7150 nM was found for `COC(=O)[C@H](CCCCNC(C)=O)NC(=O)CCCSc1nc(-c2ccc(OC)cc2)c(-c2ccc(OC)cc2)n1C(C)=O` [Example 5, N6-acetyl-N2-[4-[1-acetyl-4,5-bis(4-methoxyphenyl)-1H-imidazol-2-ylthio]-1-oxobutyl]-L-lysine, methyl ester] in this work.
